Data set [1] deals with Candida albicans. Kind of data set: Antifungal activity against Candida albicans SC5314 assessed as inhibition of fungal growth incubated for 24 hrs by CLSI protocol based broth microdilution method. The data set is classed as functional.
Data set [2] deals with Candida albicans. The data set can be described thus: Antifungal activity against Candida albicans SN152 assessed as inhibition of fungal growth incubated for 24 hrs by CLSI protocol based broth microdilution method. The data set is classed as functional.
The subject of data set [3] is Candida albicans. Kind of data set: Antifungal activity against Candida albicans erg6delta/delta assessed as inhibition of fungal growth incubated for 24 hrs by CLSI protocol based broth microdilution method. Format: functional. In general terms: In broth dilution the organism is exposed to a series of concentrations in liquid medium.
Data set [4] relates to Candida albicans. The data set can be described thus: Synergistic antifungal activity against Candida albicans SC5314 assessed as inhibition of fungal growth incubated for 24 hrs in presence of (Z)-1,5-dimethyl-4-(4-(naphthalen-2-yl)-2-(phenylimino)thiazol-3(2H)-yl)-2-phenyl-1,2-dihydro-3H-pyrazol-3-one by broth microdilution checkerboard assay. The data set is classed as functional.

Data set [5] relates to Candida albicans. The data set can be described thus: Synergistic antifungal activity against Candida albicans SC5314 assessed as inhibition of fungal growth incubated for 24 hrs in presence of (Z)-4-(4-(4-bromophenyl)-2-(phenylimino)thiazol-3(2H)-yl)-1,5-dimethyl-2-phenyl-1,2-dihydro-3H-pyrazol-3-one by broth microdilution checkerboard assay. The data set is classed as functional.

Data set [6] has as its system Candida albicans. Kind of data set: Antifungal activity against Candida albicans SC5314 assessed as inhibition of hyphae growth incubated for 24 hrs by CLSI protocol based broth microdilution method. Format: functional.
A short description of data set [7]: Cytotoxicity against human BEAS-2B cells incubated for 48 hrs by CCK-8 method. The data set is classed as toxicity, cell-based.
A short description of data set [8]: Cytotoxicity against human HUVEC cells incubated for 48 hrs by CCK-8 method. The data set is classed as toxicity, cell-based. (Tetrazolium dyes change colour on reduction, which living cells bring about.)
The nature of data set [9]: Hemolytic activity in mouse RBC assessed as hemolysis at 2 to 32 ug/ml incubated for 60 mins by absorbance based analysis relative to control. Format: toxicity, cell-based, Erythrocyte. Particulars: mouse red blood cells, at 2 to 32 µg/mL, dose 2-32 µg/ml, read-out: Activity.
Data set [10] deals with T1, Sterol 24-C-methyltransferase (Candida albicans (strain SC5314 / ATCC MYA-2876) (Yeast), UniProt O74198).
T1 sequence (O74198 whole entry): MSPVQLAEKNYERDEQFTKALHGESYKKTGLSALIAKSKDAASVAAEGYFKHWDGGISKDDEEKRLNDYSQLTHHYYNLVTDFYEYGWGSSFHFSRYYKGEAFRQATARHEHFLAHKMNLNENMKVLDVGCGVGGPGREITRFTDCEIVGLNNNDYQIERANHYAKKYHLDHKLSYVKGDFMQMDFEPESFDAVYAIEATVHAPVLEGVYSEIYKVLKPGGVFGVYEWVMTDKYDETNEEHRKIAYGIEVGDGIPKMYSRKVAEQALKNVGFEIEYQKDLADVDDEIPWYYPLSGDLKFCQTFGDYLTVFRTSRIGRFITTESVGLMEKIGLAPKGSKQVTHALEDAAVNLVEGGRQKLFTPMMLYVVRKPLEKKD
The data set can be described thus: Inhibition of recombinant Candida albicans SC5314 Erg6 methyltransferase activity using zymosterol as substrate incubated for 15 mins followed by substrate addition by liquid scintillation counter analysis.

The test system of data set [11] is Candida albicans. Kind of data set: Synergistic antifungal activity against Candida albicans SC5314 assessed as inhibition of fungal growth incubated for 24 hrs in presence of tridemorph by broth microdilution checkerboard assay. Format: functional.
Data set [12] concerns Candida albicans. The data set can be described thus: Antifungal activity against Candida albicans SC5314 assessed as inhibition of hyphae growth measured after 30 passages. Format: functional, organism-based.
Data set [13] concerns Candida albicans. Kind of data set: Synergistic antifungal activity against Candida albicans SC5314 assessed as inhibition of fungal growth incubated for 24 hrs in presence of terbinafine by broth microdilution checkerboard assay. Format: functional.
In data set [14] the test system is Candida albicans. Kind of data set: Synergistic antifungal activity against Candida albicans SC5314 assessed as fractional inhibitory concentration index incubated for 24 hrs in presence of tridemorph by broth microdilution checkerboard assay. Format: functional.
The test system of data set [15] is Candida albicans. The data set can be described thus: Synergistic antifungal activity against Candida albicans SC5314 assessed as fractional inhibitory concentration index incubated for 24 hrs in presence of terbinafine by broth microdilution checkerboard assay. Format: functional.

Converted amounts (≈) assume the structure as drawn. The source made the active and inactive calls. No cut-off for these calls is given here. Where only a bound is given, the exact number is not on record here.

We go through 8 compounds from ChEMBL document CHEMBL5512671, “Structure-Based Optimization of Novel Sterol 24-C-Methyltransferase Inhibitors for the Treatment of Candida albicans Infections” (J Med Chem, 2024).

A word on the MIC80: it is the lowest concentration that inhibits either 80% of growth or 80% of the strains tested, depending on the study. As to `CN(C/C=C/C#CC(C)(C)C)Cc1cccc2ccccc12` [TERBINAFINE], the MIC80 is 32 µg/mL (≈ 110 µM) in the data set with Candida albicans [1]; 32 µg/mL (≈ 110 µM) in the data set on Candida albicans [2]; 0.5 µg/mL (≈ 1.72 µM) in the data set with Candida albicans [3]; 0.008 µg/mL in the data set on Candida albicans [4]; 0.5 µg/mL with Candida albicans [5].

Usually MIC50 stands for an inhibitory concentration at the 50% level, which refers to growth in some studies and to a panel of isolates in others. The EC50 is the concentration needed to bring the measured effect to its halfway point. Take `Cc1c(-n2c(-c3ccc(Br)cc3)cs/c2=N\c2ccc3ccccc3c2)c(=O)n(-c2ccccc2)n1C`: in the data set on Candida albicans [1], the MIC80 was greater than 128 µg/mL. In addition, the MIC50 in the data set with Candida albicans [6] stood at 1 µg/mL (≈ 1.76 µM). Moreover, the EC50 at 48 h in [7] and in [8] was greater than 50 µg/mL each time. Moreover, the hemolysis at 1 h in data set [9] is less than 1%.

Turning to `Cc1c(-n2c(-c3ccc(N(C)C)cc3)cs/c2=N\c2ccccc2)c(=O)n(-c2ccccc2)n1C`, in the data set with Candida albicans [1], the MIC80 was greater than 128 µg/mL. In addition, the MIC50 in the data set on Candida albicans [6] turned out to be 2 µg/mL (≈ 4.15 µM). For the same compound, the EC50 at 48 h in data set [7] and in data set [8] was greater than 50 µg/mL throughout. Moreover, the hemolysis at 1 h in data set [9] was less than 1%.

For the compound `Cc1c(-n2c(-c3ccc4ccccc4c3)cs/c2=N\c2cccc3ccccc23)c(=O)n(-c2ccccc2)n1C`, the MIC80 in the data set on Candida albicans [1] is greater than 128 µg/mL. The MIC50 in the data set with Candida albicans [6] is 0.5 µg/mL (≈ 0.928 µM). For the same compound, the EC50 at 48 h in data set [7] and in data set [8] was greater than 50 µg/mL in each case. For the same compound, the hemolysis at 1 h in [9] was less than 1%.

On to `Cc1c(-n2c(-c3ccc4ccccc4c3)cs/c2=N\c2ccc(Br)cc2)c(=O)n(-c2ccccc2)n1C`, for which, in the data set on Candida albicans [1], the MIC80 was greater than 128 µg/mL. The MIC50 in the data set with Candida albicans [6] worked out at 2 µg/mL (≈ 3.52 µM). For the same compound, the EC50 at 48 h in [7] and in data set [8] was greater than 50 µg/mL throughout. Further, the hemolysis at 1 h in data set [9] was less than 1%.

With `CCCCCCCCCCCCCN1CC(C)OC(C)C1` (stereo unspecified) [TRIDEMORPH], the MIC80 in the data set with Candida albicans [1] was greater than 128 µg/mL; in the data set on Candida albicans [2], greater than 128 µg/mL; with Candida albicans [3] it was 0.008 µg/mL (≈ 0.0269 µM); in the data set with Candida albicans [4], 0.008 µg/mL; with Candida albicans [5], 0.5 µg/mL.

A word on the IC50: it is the concentration at which inhibition is half-maximal. For `Cc1c(-n2c(-c3ccc(Br)cc3)cs/c2=N\c2ccccc2)c(=O)n(-c2ccccc2)n1C`, the figures for the MIC80 in the data set on Candida albicans [1], with Candida albicans [11] and in the data set on Candida albicans [13] were greater than 128 µg/mL, 8 µg/mL and 8 µg/mL, respectively. Besides, the MIC50 in the data set with Candida albicans [6] came to 2 µg/mL (≈ 3.87 µM). Besides, the EC50 at 48 h in data set [7] and in data set [8] was greater than 50 µg/mL each time. For the same compound, the hemolysis at 1 h in data set [9] is less than 1%. In addition, the IC50 in data set [10] worked out at 1.01 µM. Further, the result with Candida albicans [12] was Active. Besides, the “fractional inhibitory concentration index (FICI)” value with Candida albicans [14] and in the data set on Candida albicans [15] was less than 0.1 throughout.

With `Cc1c(-n2c(-c3ccc4ccccc4c3)cs/c2=N\c2ccc(C(F)(F)F)cc2)c(=O)n(-c2ccccc2)n1C`, the MIC80 in the data set with Candida albicans [1] is greater than 128 µg/mL. In addition, in the data set on Candida albicans [6], the MIC50 was 2 µg/mL (≈ 3.59 µM). Also, the EC50 at 48 h in data set [7] and in data set [8] was greater than 50 µg/mL each time. In data set [9], the hemolysis at 1 h is less than 1%.
